# “And” between values parts separate entries of the source, which are not always exact repeats. Equal entries are not always repeated.
# Tests used:
# [1] = system: T1 AAD-12 (v1) rice lines pDAB4101(20)003 and pDAB4101(27)002; test: 2,4-D DMA tolerance in T1 rice; assay type: in vivo, Oryza sativa
# Text: (§1) The following T1 AAD-12 (v1) single segregating locus lines were planted into 3-inch pots containing Metro Mix media: pDAB4101(20)003 and pDAB4101(27)002. At 2-3 leaf stage were sprayed with 140 g ae/ha imazethapyr. Nulls were eliminated and individuals were sprayed at V3-V4 stage in the track sprayer set to 187 L/ha at 1120, 2240 or 4480 g ac/ha 2,4-D DMA (2×, 4×, and 8× typical commercial use rates, respectively). Plants were graded at 7 and 14 DAT and compared to untransformed commercial rice cultivar. ‘Lamont,’ as negative control plants.
# [2] = system: untransformed commercial rice cultivar Lamont; test: 2,4-D DMA tolerance, untransformed rice control; assay type: in vivo, Oryza sativa; conditions: Lemont Untransformed Control
# Text: as §1
# [3] = system: untransformed control canola plants; test: 2,4-D DMA tolerance, untransformed canola control; assay type: in vivo, Brassica napus
# Text: Surviving plants were transplanted into 3-inch pots containing Metro Mix media. Surviving plants from T1 progenies, that were selected with 560 g ae/ha 2,4-D, were also transplanted into 3-inch pots filled with Metro Mix soil. At 2-4 leaf stage plants were sprayed with either 280, 560, 1120, or 2240 g ae/ha 2,4-D DMA. Plants were graded at 3 and 14 DAT and compared to untransformed control plants. A sampling of T1 event injury data 14DAT may be seen in Table 30.
# [4] = system: T4 Arabidopsis seed homozygous for AAD-12 (v1) spiked into wildtype (sensitive) seed; test: AAD-12 (v1) as selectable marker with 2,4-D as selection agent; assay type: in vivo, Arabidopsis thaliana; conditions: applied 7 and 11 days after planting (DAP); Resistant or Sensitive identified 17 DAP
# Method: The ability to use AAD-12 (v1) as a selectable marker using 2,4-D as the selection agent was analyzed initially with Arabidopsis transformed as described above. Approximately 50 T4 generation Arabidopsis seed (homozygous for AAD-12 (v1)) were spiked into approximately 5,000 wildtype (sensitive) seed. Several treatments were compared, each tray of plants receiving either one or two application timings of 2,4-D in one of the following treatment schemes: 7 DAP, 11 DAP, or 7 followed by 11 DAP. Since all individuals also contained the PAT gene in the same transformation vector, AAD-12 selected with 2,4-D could be directly compared to PAT selected with glufosinate.
# Treatments were applied with a DeVilbiss spray tip as previously described. Plants were identified as Resistant or Sensitive 17 DAP.
# [5] = system: AAD-12 (v1) T0 Maverick soybean plants; test: 2,4-D leaf paint (leaf flip assay) on T0 soybean; assay type: in vivo, Glycine max; design: key to Leaf flip assay (18 HAT) Node N-1 / Leaf flip assay (18 HAT) Node N-2: 1 = Flip; 0 = No Flip; conditions: for Leaf flip assay (18 HAT) Node N-1 / Leaf flip assay (18 HAT) Node N-2: 2,4-D leaf paint
# Text: (§2) Plants that are transferred to the greenhouse can be assayed for the presence of an active PAT gene further with a non-destructive manner by painting a section of leaf of the T0 primary transformant, or progeny thereof, with a glufosinate solution [0.05-2% v/v Liberty Herbicide, preferably 0.25-1.0% (v/v),=500-2000 ppm glufosinate, Bayer Crop Science]. Depending on the concentration used, assessment for glufosinate injury can be made 1-7 days after treatment. Plants can also be tested for 2,4-D tolerance in a non-destructive manner by selective application of a 2,4-D solution in water (0.25-1% v/v commercial 2,4-D dimethylamine salt formulation, preferably 0.5% v/v=2280 ppm 2,4-D ae) to the terminal leaflet of the newly expanding trifoliolate one or two, preferably two, nodes below the youngest emerging trifolioate. This assay allows assessment of 2,4-D sensitive plants 6 hours to several days after application by assessment of leaf flipping or rotation >90 degrees from the plane of the adjacent leaflets. Plants tolerant to 2,4-D will not respond to 2,4-D. To plants will be allowed to self fertilize in the greenhouse to give rise to T1 seed. T1 plants (and to the extent enough T0 plant clones are produced) will be sprayed with a range of herbicide doses to determine the level of herbicide protection afforded by AAD-12 (v1) and PAT genes in transgenic soybean. Rates of 2,4-D used on T0 plants will typically comprise one or two selective rates in the range of 100-1120 g ae/ha using a track sprayer as previously described. T1 plants will be treated with a wider herbicide dose ranging from 50-3200 g ae/ha 2,4-D. Likewise, T0 and T1 plants can be screened for glufosinate resistance by postemergence treatment with 200-800 and 50-3200 g ae/ha glufosinate, respectively. Glyphosate resistance (in plants transformed with constructs that contain EPSPS) or another glyphosate tolerance gene can be assessed in the T1 generation by postemergence applications of glyphosate with a dose range from 280-2240 g ae/ha glyphosate. Analysis of protein expression will occur as described in below. Individual T0 plants were assessed for the presence of the coding region of the gene of interest (AAD-12 (v1) or PAT v6) and copy number. Determination of the inheritance of AAD-12 (v1) will be made using T1 and T2 progeny segregation with respect to herbicide tolerance as described in previous examples.
# A subset of the initial transformants were assessed in the T0 generation according to the methods above. […] PAT-only transformed plants responded the same at wildtype plants to leaf paint applications of 2,4-D
# [6] = system: wildtype Maverick soybeans; test: 2,4-D spray application on wildtype soybean; assay type: in vivo, Glycine max
# Text: as §2
# The screened plants were then sampled for molecular and biochemical analyses for the confirmation of the AAD12 (v1) genes integration, copy number, and their gene expression levels as described below and reported in Table 25.
# [7] = Maverick WT individual plants (WT-5, WT-6, WT-7), spray 560 g ae/ha 2,4-D
# [8] = Maverick WT individual plants (WT-10, WT-8, WT-9), spray 1120 g ae/ha 2,4-D
smiles,measurement,setting,value
"CNC.O=C(O)COc1ccc(Cl)cc1Cl [2,4-D DMA]",Average % injury 14 DAT,"[1]; T1 pDAB4101(20)003, 1120 g ae/ha",10%
same,Average % injury 14 DAT,"[1]; T1 pDAB4101(20)003, 2240 g ae/ha",15%
same,Average % injury 14 DAT,"[1]; T1 pDAB4101(20)003, 4480 g ae/ha",23%
same,Average % injury 14 DAT,"[1]; T1 pDAB4101(27)002, 1120 g ae/ha",10%
same,Average % injury 14 DAT,"[1]; T1 pDAB4101(27)002, 2240 g ae/ha",30%
same,Average % injury 14 DAT,"[1]; T1 pDAB4101(27)002, 4480 g ae/ha",40%
same,Average % injury 14 DAT,[2]; 1120 g ae/ha,20%
same,Average % injury 14 DAT,[2]; 2240 g ae/ha,35%
same,Average % injury 14 DAT,[2]; 4480 g ae/ha,50%
same,Average % injury 14 DAT,[3]; 280 g ae/ha,85%
same,Average % injury 14 DAT,[3]; 560 g ae/ha,85%
same,Average % injury 14 DAT,[3]; 1120 g ae/ha,90%
same,Average % injury 14 DAT,[3]; 2240 g ae/ha,95%
"O=C(O)COc1ccc(Cl)cc1Cl [2,4-D, 2,4-dichlorophenoxyacetic acid]",optimum treatment for selection of transformed plants,[4],75 g ae/ha
same,Leaf flip assay (18 HAT) Node N-1,"[5]; event D-1-14 (pDAB4464, AAD-12, CsVMV)",0
same,Leaf flip assay (18 HAT) Node N-2,"[5]; event D-2-9 (pDAB4464, AAD-12, CsVMV)",0
same,Leaf flip assay (18 HAT) Node N-2,"[5]; event D-2-14 (pDAB4464, AAD-12, CsVMV)",0
same,Leaf flip assay (18 HAT) Node N-2,"[5]; event D-3-5 (pDAB4468, AAD-12, AtUbi10)",0
same,Leaf flip assay (18 HAT) Node N-1,"[5]; event D-3-6 (pDAB4468, AAD-12, AtUbi10)",0
same,Leaf flip assay (18 HAT) Node N-2,"[5]; event D-3-7 (pDAB4468, AAD-12, AtUbi10)",0
same,Leaf flip assay (18 HAT) Node N-2,"[5]; event D-3-9 (pDAB4468, AAD-12, AtUbi10)",0
same,Leaf flip assay (18 HAT) Node N-2,"[5]; event D-4-11B (pDAB4468, AAD-12, AtUbi10)",0
same,Leaf flip assay (18 HAT) Node N-2,"[5]; event D-4-16 (pDAB4468, AAD-12, AtUbi10)",0
same,Leaf flip assay (18 HAT) Node N-2,"[5]; event D-4-17 (pDAB4468, AAD-12, AtUbi10)",0
same,Leaf flip assay (18 HAT) Node N-1,"[5]; event D-5-2 (pDAB4472, AAD-12, AtUbi3)",0
same,Leaf flip assay (18 HAT) Node N-2,"[5]; event D-9-1 (pDAB4480, AAD-12, AtAct2)",0
same,"response to 2,4-D leaf painting","[5]; 2,4-D solution applied to terminal leaflet",did not respond
same,response to herbicide spray application,"[6]; 560 g ae/ha 2,4-D, 7-14 DAT",severely injured
same,response to herbicide spray application,"[6]; 1120 g ae/ha 2,4-D",killed
same,% injury 2 DAT,[6]; [7],50% and 70% (2×)
same,% injury 7 DAT,[6]; [7],60% and 90% and 80%
same,% injury 14 DAT,[6]; [7],60% and 80% (2×)
same,% injury 2 DAT,[6]; [8],70%
same,% injury 7 DAT,[6]; [8],90% and 95% (2×)
same,% injury 14 DAT,[6]; [8],100%
